Laboratory results taken from paper PMC8634709, “Neuroprotective Potential of Tamarillo (Cyphomandra betacea) Epicarp Extracts Obtained by Sustainable Extraction Process” (Frontiers in Nutrition, 2021).
Marks after values point to notes of the source that are not given here.

Columns and labels:
Conditions in all cases: mean ± SD (n = 3)
[1] = ROS scavenging capacity (ORAC method)
Experimental: In this case, a concentration range of extract from 0.62 to 6.2 μg/ml in EtOH/H2O (1:9, v/v) was measured. […] The measurements were carried out in triplicate.
(4) %Inh=AUCControl−AUCsample/AUCcontrol x 100
AUC was calculated by means of Equation (5).
where f0 and fi are fluorescence at t = 0 and every 5 min, respectively.

[2] = ABTS radical scavenging assay
Experimental: ABTS^·+ radical scavenging assay was performed according to Re et al. ([32]), with modifications. TE at six different concentrations of each sample [from 2.9 to 29 μg/ml EtOH/H2O (1:1, v/v)] was used, giving a linear response between 20 and 80% of the control absorbance. All the measurements were performed in triplicate. Equation (3) represents the percentage of ABTS^·+ inhibition due to TE extracts and Trolox compared with the ABTS control.
(3) %Inh=AABTS control−(Asample−Asample blank)/AABTS control x 100
where A ABTScontrol is absorbance of radical at t = 0 min; Asample, represents the mean of absorbance readings of TE samples, and ASampleblank is the absorbance of the sample without ABTS. The capacity of free radical scavenging was expressed by IC50 value, and the results represent the mean inhibitory concentration (in μg/ml) of TE against ABTS^·+ radical.

[3] = RNS scavenging capacity (NO radical scavenging, Griess reaction)
Experimental: Reactive nitrogen species scavenging capacity was measured following the NO^· radical scavenging assay according to Ho et al. ([34]) and based on the Griess reaction. […] Each measurement was carried out in triplicate, and ascorbic acid and rosemary extract were used as chemical and natural positive controls, respectively. The NO scavenging capacity of the extract was expressed through inhibition % calculated as described in Equation (3).

## Cc1c(C)c2c(c(C)c1O)CCC(C)(C(=O)O)O2 (racemic) [Trolox, (±)-6-hydroxy-2,5,7,8-tetramethylchromane-2-carboxylic acid]
[1]
  ROS (ORAC) IC50: 1.290 ± 0.09^a μg/ml
[2]
  ABTS IC50: 2.500 ± 0.02^a μg/mL extract

## O=C1O[C@H]([C@@H](O)CO)C(O)=C1O [Ascorbic acid]
[3]
  RNS IC50: 1100.901 ± 3.96^c μg/ml
[2]
  ABTS IC50: 25.000 ± 0.30^f μg/mL extract
